Experimental findings from PubChem BioAssay (NCI) are described below.

Test systems include EKVX NSCLC; PC-3 prostate; SF-295 CNS; U251 CNS; UACC-62 melanoma; A549 NSCLC; M14 melanoma; RXF 393 renal; SNB-19 CNS.
Common to all, as to test: DTP human tumour cell line panel, 48 h

Broadly, the TGI is the concentration at which net growth stops. A low value points to greater sensitivity of the cells.

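96-well plates; 48 h exposure; 5 concentrations. Endpoints by linear interpolation between flanking doses. Not reached: highest tested concentration assigned. TGI marks complete inhibition of growth.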

For `CCOC(=O)c1[nH]cnc1/N=N/N(C)N`, the total growth inhibition concentration (TGI) in the assay on EKVX NSCLC, in the assay with PC-3 prostate, in the assay with SF-295 CNS, with U251 CNS, with UACC-62 melanoma and with A549 NSCLC was > 100 µM throughout. Moreover, the TGI in the assay with M14 melanoma and in the assay on RXF 393 renal was > 100 µM in each case.

In the case of `NNC(=Nc1ccccc1)SCc1ccccc1`, the concentration for total growth inhibition (TGI) in the assay with PC-3 prostate, in the assay on SF-295 CNS, in the assay with U251 CNS, in the assay with SNB-19 CNS, in the assay with UACC-62 melanoma and in the assay with A549 NSCLC was > 100 µM each time. Also, the total growth inhibition concentration (TGI) in the assay with M14 melanoma and in the assay with RXF 393 renal was > 100 µM throughout.

In the case of `Nc1nc2cc(CNc3ccc(C(=O)O)cc3)ccc2nc1-c1ccccc1`, the TGI in the assay with PC-3 prostate, with SF-295 CNS, with U251 CNS, with SNB-19 CNS, with A549 NSCLC and in the assay with M14 melanoma was > 100 µM throughout. Moreover, the total growth inhibition concentration (TGI) in the assay with RXF 393 renal was > 100 µM.

Take `N#CN=C1c2ccccc2C(=NC#N)c2cc(CO)ccc21`: the concentration for total growth inhibition (TGI) in the assay on EKVX NSCLC, with PC-3 prostate, in the assay on SF-295 CNS, in the assay on U251 CNS, in the assay with SNB-19 CNS and in the assay with A549 NSCLC was > 100 µM each time. Further, the TGI was > 100 µM in the assay with M14 melanoma and 81.5 µM with RXF 393 renal.

As for `Cc1ccc2ccc(=O)oc2c1`, the TGI in the assay on EKVX NSCLC, in the assay with PC-3 prostate, in the assay with SF-295 CNS, in the assay on U251 CNS, in the assay on UACC-62 melanoma and in the assay on A549 NSCLC was > 100 µM in each case. Also, the TGI in the assay with M14 melanoma and in the assay on RXF 393 renal was > 100 µM each time.

As for `CN(C)c1ccc(/C=N/n2c(-c3ccccc3)nc3ccccc3c2=O)cc1`, the TGI in the assay with EKVX NSCLC, in the assay with PC-3 prostate, in the assay with SF-295 CNS, with U251 CNS, in the assay on SNB-19 CNS and with UACC-62 melanoma was > 100 µM throughout. The concentration for total growth inhibition (TGI) in the assay with A549 NSCLC and with M14 melanoma was > 100 µM in each case.

For `CC(/C=N/N(C)C1=NCCCCN1)=N/N(C)C1=NCCCCN1`, the TGI in the assay with EKVX NSCLC, in the assay with PC-3 prostate, with SF-295 CNS, in the assay with U251 CNS, in the assay on SNB-19 CNS and with UACC-62 melanoma was > 100 µM each time. Besides, the TGI in the assay on A549 NSCLC and in the assay on RXF 393 renal was > 100 µM throughout.

For `c1nncn1C12C3C4C5C3C1C5C42` (configuration not stated), the TGI in the assay with EKVX NSCLC, with PC-3 prostate, in the assay with SF-295 CNS, in the assay on U251 CNS, in the assay with SNB-19 CNS and in the assay with A549 NSCLC was > 100 µM in each case.

Turning to `CCn1nc(-c2ccccc2)c2c1N(C)c1ccccc1-n1c(-c3ccccc3)nnc1-2`, the concentration for total growth inhibition (TGI) with PC-3 prostate is 27.7 µM; with U251 CNS, 28.2 µM; in the assay with SNB-19 CNS, 32.4 µM; in the assay with UACC-62 melanoma, 26.6 µM; in the assay with A549 NSCLC, 29.9 µM; in the assay on M14 melanoma, 32.1 µM.

`OCc1c2c(cc3c1CC1(C3)Cc3cc4c(c(CO)c3C1)CCC4)CCC2`: the TGI was 30.5 µM in the assay with EKVX NSCLC; 39.9 µM in the assay with PC-3 prostate; 26.9 µM with SF-295 CNS; 29.4 µM with U251 CNS; 32.6 µM in the assay with UACC-62 melanoma; 30.9 µM with A549 NSCLC. Also, the values for the TGI in the assay on M14 melanoma and with RXF 393 renal were 32.9 µM and 32.7 µM, respectively.

Turning to `C=C(C)[C@@H]1CC[C@]2(CO)CC[C@]3(C)[C@H](CC[C@@H]4[C@@]5(C)CC[C@H](O)C(C)(C)[C@@H]5CC[C@]43C)[C@@H]12`, the TGI is 87.6 µM in the assay on EKVX NSCLC; 84.3 µM in the assay on PC-3 prostate; 27.8 µM in the assay with SF-295 CNS; 24.1 µM in the assay on U251 CNS; 26.9 µM with A549 NSCLC; > 100 µM in the assay on M14 melanoma. The same molecule came in with a concentration for total growth inhibition (TGI) in the assay with RXF 393 renal of 25.9 µM.

`COc1cc2c(cc1OC)C1=Cc3ccc(OC)c(OC)c3C(C#N)N1CC2` (configuration not stated): the concentration for total growth inhibition (TGI) in the assay with EKVX NSCLC is > 100 µM; in the assay with PC-3 prostate, > 100 µM; in the assay on SF-295 CNS it was > 100 µM; in the assay with U251 CNS, > 100 µM; in the assay with SNB-19 CNS, > 100 µM; with UACC-62 melanoma, 45.5 µM. In addition, the total growth inhibition concentration (TGI) in the assay on A549 NSCLC and in the assay on M14 melanoma was > 100 µM throughout.

Turning to `O=C(Nc1ccccc1)c1cc(S(=O)(=O)Nc2n[nH]c(=O)[nH]2)c(SSc2cc(Cl)c(C(=O)Nc3ccccc3)cc2S(=O)(=O)Nc2n[nH]c(=O)[nH]2)cc1Cl`, the TGI in the assay on EKVX NSCLC, with PC-3 prostate, in the assay on SF-295 CNS, in the assay with U251 CNS, in the assay with SNB-19 CNS and in the assay on A549 NSCLC was > 100 µM each time. Further, the TGI in the assay on M14 melanoma is > 100 µM.

Turning to `CC(C)=NNc1cnnc2ccc([N+](=O)[O-])cc12`, the concentration for total growth inhibition (TGI) with EKVX NSCLC, in the assay with PC-3 prostate, in the assay on SF-295 CNS, with U251 CNS, in the assay on SNB-19 CNS and in the assay with A549 NSCLC was > 100 µM each time. Also, the TGI with M14 melanoma and in the assay on RXF 393 renal was > 100 µM each time.

Consider `CC(C)(C)OC(=O)NC1CCCC1C(O)(C1=CCCC1)C1=CCCC1` (configuration not stated), for which the concentration for total growth inhibition (TGI) in the assay with PC-3 prostate, with U251 CNS, in the assay on SNB-19 CNS, with UACC-62 melanoma, in the assay on A549 NSCLC and in the assay with M14 melanoma was > 100 µM throughout. Further, in the assay with RXF 393 renal, the total growth inhibition concentration (TGI) is > 100 µM.

As for `C/C=C1\CN2CCC34c5ccccc5N(C)C35OCC4(C(=O)OC)C1CC25` (configuration not stated), the concentration for total growth inhibition (TGI) in the assay with EKVX NSCLC, with PC-3 prostate, in the assay with SF-295 CNS, in the assay with U251 CNS, in the assay on SNB-19 CNS and in the assay on UACC-62 melanoma was > 100 µM in each case. The TGI in the assay on A549 NSCLC is > 100 µM; in the assay on M14 melanoma, 45.4 µM.

As for `CCC(C)NC(=S)N/N=C(\C)c1ccccn1` (configuration not stated), the TGI in the assay with PC-3 prostate was > 100 µM; in the assay with SF-295 CNS it was > 33.2 µM; in the assay with U251 CNS it was > 100 µM; in the assay with SNB-19 CNS, > 100 µM; with UACC-62 melanoma, > 30 µM; in the assay on A549 NSCLC, > 33.5 µM. The TGI with RXF 393 renal came to 26.9 µM.
